Experimental data from patent publication US9567318B2, “Substituted pyrimidine compounds and uses thereof” (Memorial Sloan-Kettering Cancer Center, priority 2009, dated 2017).

Assays:
Type in all cases: cell-based, human
[1] = test system: HER2, Raf-1, Akt, Hsp70 in SKBr3 cells; assay: Western blotting of Hsp90 onco-client proteins and Hsp70 in SKBr3 cells
Method: FIG. 3. Testing strategy for the discovery of YK5. a, b) SKBr3 cells were treated for 24 h with the indicated concentrations of inhibitors and cells were lysed for western blot (WB) analysis. β-actin was used as loading control. The data are consistent with those obtained from multiple repeat experiments (n≧3). c) The ability of the indicated inhibitors to compete with GM-Cy3B for Hsp90 binding in SKBr3 cell extracts was examined by fluorescence polarization. Values recorded in wells with added inhibitor were normalized to values read in control wells and plotted against the concentration of tested inhibitor. Drugs were assayed in triplicate. All compounds were used as DMSO stocks. Points, mean; bars, s.d. d) Growth inhibition: SKBr3 cells were incubated in triplicate with increasing concentrations of compound and growth over 72 h was assessed. Y-axis values below 0% represent cell death of the starting population. HER2 degradation was analyzed as in panel a), and gels were quantified by densitometry. Recorded values were normalized to control (vehicle only treated cells) and data graphed against YK5 concentration. Error bars represent the s.d. of the mean (n=3).
FIG. 8. […] Points, mean; bars, s.d. Yaxis values below 0% represent cell death of the starting population. c) Streptavidin beads (50 μl) were incubated with the indicated concentrations of YK55, YK56 or D-biotin to immobilize the corresponding compounds on beads. Beads (50 μl) were probed with SKBr3 cell extracts (500 μg), and the precipitated Hsp70 analyzed by western blot and quantified by […]. Results from three independent experiments were graphed to determine the relative binding affinity of YKs. Points, mean; bars, s.d. d) Structure of representative YKs. YK55 and YK56 are the biotinylated derivatives of YK54 and YK57, respectively.
FIG. 9. […] Cells were treated for 24 h with the indicated concentrations of YK149 and YK5. Cells were lysed and proteins analyzed by western blotting. b) Examples of the compounds of the present subject matter inhibit the activity of the oncogenic STAT3 in the triple-negative breast cancer cells MDA-MB-468. Cells were treated for the indicated times with compounds or vehicle and proteins analyzed by western blot. (c) Examples of the compounds of the present subject matter dose-dependently induce apoptosis in the acute myeloid leukemia cells MOLM13. Cells were treated for 24 h with the indicated concentration of compounds and the increase in caspase3,7 activity was measured and compared to only vehicle (DMSO) treated cells. Caspase-3,7 activity was a measure of compound potency in cleaving the caspase substrate Z-DEVD-R110 and releasing rhodamine. The percentage increase in apoptotic cells was calculated by comparing the fluorescence readings obtained from compounds with those obtained from vehicle (DMSO)-treated cells.
Western Blotting. Cells were grown to 60-70% confluence and treated with inhibitor or DMSO vehicle for the indicated times. Protein lysates were prepared in 50 mM Tris pH 7.4, 150 mM NaCl and 1% NP-40 lysis buffer. Protein concentrations were measured using the BCA kit (Pierce) according to the manufacturer's instructions. […]

Kasumi-1 cells = assay: Apoptosis, acridine orange/ethidium bromide, Kasumi-1; conditions: 10 μM, 24 h
Method: FIG. 13. YK5 has a higher apoptotic effect than Hsp90 inhibitors in select tumors. (a-d) Cells were treated with the indicated concentrations of inhibitors for the times presented. (a,b) Apoptotic cells were quantified by dual acridine orange/ethidium bromide staining as described in Methods. (c,d) Molecular markers of apoptosis (PARP cleavage) were analyzed in cells treated for 24 h with indicated concentrations of inhibitors (c) or for the indicated times with the indicated concentration of inhibitors (d) by western blotting. (e) MDAMB-468 cells were treated with vehicle, TNFα (20 ng/ml), YK5 (1 μM), pretreated with YK5 for 2 h before TNFα or co-treated, and cells were lysed for western blot analysis (left), or cell death was quantified by analyzing the hypodiploid population upon propidium iodine staining (right). […]
To determine whether cell death by YK5 was attributable to apoptosis, cells were treated with YK5 and effects on morphology, as well as on several effectors and mediators of apoptosis were analyzed (FIG. 13). To quantify the number of cells undergoing apoptosis, cells were stained with acridine orange/ethidium bromide (AO/EB) and analyzed under a fluorescence microscope for the percentage of viable, apoptotic (early and late) and necrotic cells. […]
Apoptosis-Acridine Orange/Ethidium Bromide. […] Percentage of apoptotic cells was determined from 200-300 cells counted in each group.

[2] = test system: MDA-MB-468, SKBr3, LNCaP, MOLM-13, Kasumi-1, OCI-Ly7 and HuH7 cells; assay: Growth inhibition in a panel of cancer cells; conditions: growth over 72 h
Method: Tested were MDA-MB-468 triple-negative breast cancer cells, SKBr3 HER2+breast cancer cells, LNCaP mAR+prostate cancer cells, MOLM-13 and Kasumi-1 acute myeloid leukemia cells, OCI-Ly7 diffuse large B-cell lymphoma cells and HuH7 hepatocellular carcinoma cells. […] In cancer cells, half growth inhibitory concentrations ([…]) recorded for YK5 were in high agreement with its potency to degrade Hsp90 onco-clients.
(§1) Growth Inhibition Assay. Antiproliferative effects of inhibitors were evaluated using the dye Alamar blue. This reagent offers a rapid objective measure of cell viability in cell culture, and it uses the indicator dye resazurin to measure the metabolic capacity of cells, an indicator of cell viability. Briefly, cells were plated on Costar 96-well plates. For attached cells (such as SKBr3, MDA-MB-468, LNCaP, MRCS), 8,000 cells/well were used. For suspension cells (such as MOLM-13, Kasumi-1, OCI-Ly7, PBL), 20,000 cells/well were plated. Cells were allowed to incubate for 24 h at 37° C. before drug treatment. Drugs were added in triplicates at the indicated concentrations, and the plate was incubated for 72 h. Alamar Blue (440 μM) was added, and the plate read 6 h later using the Analyst GT (Fluorescence intensity mode, excitation 530 nm, emission 580 nm, with 560=dichroic mirror). Results were analyzed using the Softmax Pro software. The percentage cell growth inhibition was calculated by comparing fluorescence readings obtained from treated versus control cells, accounting for initial cell population (time zero).

[3] = test system: Kasumi-1 acute myeloid leukemia cells; assay: Growth Inhibition Assay (Alamar blue), Kasumi-1; conditions: Kasumi-1 cells
Method: (§2) The IC50 values listed for some of these compounds illustrate the antiproliferative effects of the subject compounds and were obtained using the Growth Inhibition assays described herein.
as §1

[4] = test system: SKBr3 HER2+ breast cancer cells; assay: Growth Inhibition Assay (Alamar blue), SKBr3
Method: as §2, §1

SMILES	IC50 ([3]; Homo sapiens, Kasumi 1, 72 h) [µM]	IC50 ([4]; Homo sapiens, SK-BR-3, 72 h) [µM]	IC50 ([3]; 72 h) [µM]	also measured
C#CCCCn1c(Cc2cc(OC)c(OC)c(OC)c2Cl)nc2c(N)nc(F)nc21 [PU24FCl, reference compound]				feed-back induction of Hsp70 (heat shock response) ([1]; SKBr3 cells, 24 h): potently activated a heat shock response; cells undergoing apoptosis (Kasumi-1 cells): 9%; growth of all tested cancer cells [2]: inhibited the growth of all tested cancer cells
CC(C)NCCCn1c(Sc2cc3c(cc2I)OCO3)nc2c(N)ncnc21 [PU-H71, reference compound]				feed-back induction of Hsp70 (heat shock response) ([1]; SKBr3 cells, 24 h): potently activated a heat shock response; growth of all tested cancer cells [2]: inhibited the growth of all tested cancer cells
C=C(C)C(=O)Nc1ccnc(Sc2c(C)nc(N3CCN(C)CC3)nc2C)n1 [YK88, N-(2-(4,6-dimethyl-2-(4-methylpiperazin-1-yl)pyrimidin-5-ylthio)pyrimidin-4-yl)methacrylamide]	13.1	16.7		
Cc1nc(N2CCN(C)CC2)nc(C)c1Sc1nccc(NC(=O)c2ccco2)n1 [YK89, N-(2-(4,6-dimethyl-2-(4-methylpiperazin-1-yl)pyrimidin-5-ylthio)pyrimidin-4-yl)furan-2-carboxamide]	12	6.8	7.5	
Cc1nc(N2CCN(C)CC2)nc(C)c1Sc1nccc(NC(=O)C2CC2)n1 [YK90, N-(2-(4,6-dimethyl-2-(4-methylpiperazin-1-yl)pyrimidin-5-ylthio)pyrimidin-4-yl)cyclopropanecarboxamide]	20.1	25.8	27.1	
COc1nc(N2CCCC2)nc(OC)c1Sc1nccc(NC(=O)C2CC2)n1 [YK110, N-(2-(4,6-dimethoxy-2-(pyrrolidin-1-yl)pyrimidin-5-ylthio)pyrimidin-4-yl)cyclopropanecarboxamide]	> 100	> 100		
C=CC(=O)Nc1ccnc(Sc2c(C)nc(N3CCOCC3)nc2C)n1 [YK117, N-(2-(4,6-dimethyl-2-morpholinopyrimidin-5-ylthio)pyrimidin-4-yl)acrylamide]	6.2	14.4		
CCC(=O)Nc1ccnc(Sc2c(C)nc(N3CCOCC3)nc2C)n1 [YK118, N-(2-(4,6-dimethyl-2-morpholinopyrimidin-5-ylthio)pyrimidin-4-yl)propionamide]	> 100	> 100		
COCC(=O)Nc1ccnc(Sc2c(C)nc(N3CCOCC3)nc2C)n1 [YK123, N-(2-(4,6-dimethyl-2-morpholinopyrimidin-5-ylthio)pyrimidin-4-yl)-2-methoxyacetamide]	58.1	> 100		

Continued, in another order:

IC50 ([3]; Homo sapiens, Kasumi 1, 72 h) [µM]	IC50 ([4]; Homo sapiens, SK-BR-3, 72 h) [µM]	IC50 ([3]; 72 h) [µM]	SMILES	also measured
34.1			CCOc1nc(N2CCN(C)CC2)nc(OCC)c1Sc1nc(N)cc(NC(=O)CC)n1 [YK31, N-(6-amino-2-(4,6-diethoxy-2-(4-methylpiperazin-1-yl)pyrimidin-5-ylthio)pyrimidin-4-yl)propionamide]	lowering of biological activity, ethylamide versus acrylamide YK30 ([1]; FIG. 8a, relative to YK30): 30 fold
> 100	99.5		CCC(=O)Nc1ccnc(Sc2c(OC)nc(N3CCCC3)nc2OC)n1 [YK106, N-(2-(4,6-dimethoxy-2-(pyrrolidin-1-yl)pyrimidin-5-ylthio)pyrimidin-4-yl)propionamide]	
7.7	6.8	9.9	C=CC(=O)Nc1cccc(Sc2c(OC)nc(N3CCN(C)CC3)nc2OC)c1 [YK129, N-(3-(4,6-dimethoxy-2-(4-methylpiperazin-1-yl)pyrimidin-5-ylthio)phenyl)acrylamide]	
15	20.7		C/C=C/C(=O)Nc1cccc(Sc2c(OC)nc(N3CCN(C)CC3)nc2OC)c1 [YK131, (E)-N-(3-(4,6-dimethoxy-2-(4-methylpiperazin-1-yl)pyrimidin-5-ylthio)phenyl)but-2-enamide]	
		7.7	C=C(C)C(=O)Nc1cccc(Sc2c(OC)nc(N3CCN(C)CC3)nc2OC)c1 [YK132, N-(3-(4,6-dimethoxy-2-(4-methylpiperazin-1-yl)pyrimidin-5-ylthio)phenyl)methacrylamideN-(3-(4,6-dimethoxy-2-(4-methylpiperazin-1-yl)pyrimidin-5-ylthio)phenyl)methacrylamide]	IC50 ([4]; 72 h): 17.8 µM
30.5	37.3	25.4	COc1nc(N2CCN(C)CC2)nc(OC)c1Sc1cccc(N)c1 [YK133, 3-(4,6-dimethoxy-2-(4-methylpiperazin-1-yl)pyrimidin-5-ylthio)aniline]	
8.9	7.7	7.9	COc1nc(N2CCN(C)CC2)nc(OC)c1Sc1cccc(NC(=O)C2CC2)c1 [YK139, N-(3-(4,6-dimethoxy-2-(4-methylpiperazin-1-yl)pyrimidin-5-ylthio)phenyl)cyclopropanecarboxamide]	
35.2	99.5		CCC(=O)Nc1cccc(Sc2c(OC)nc(N)nc2OC)c1 [YK140, N-(3-(2-amino-4,6-dimethoxypyrimidin-5-ylthio)phenyl)propionamide]	
13.9		21	COc1nc(N2CCN(C)CC2)nc(OC)c1Sc1cccc(NC(=O)CN)c1 [YK149, 2-amino-N-(3-(4,6-dimethoxy-2-(4-methylpiperazin-1-yl)pyrimidin-5-ylthio)phenyl)acetamide]	degradation of Hsp90 onco-client proteins (HER2, Raf-1, Akt) ([1]; SKBr3 cells, 24 h, western blot): dose-dependently reduce the steady-state levels of HER2 and Raf-1
